Experimental data as given in ChEMBL document CHEMBL1128617, “4-Deoxy-4-aminoavermectins with potent broad spectrum antiparasitic activities” (1995).

Legend:
Format in all cases: functional
[1] = system: Ovis aries; test: Antiparasitic activity against Haemonchus contortus at dose of 0.20 mg/kg in sheep anthelmintic test; conditions: dose 0.2 mg/kg
[2] = system: Ovis aries; test: Antiparasitic activity against Trichostrongylus axei at dose of 0.20 mg/kg in sheep anthelmintic test; conditions: dose 0.2 mg/kg
[3] = system: Ovis aries; test: Antiparasitic activity against Oesophagostomum columbianum at dose of 0.20 mg/kg in sheep anthelmintic test; conditions: dose 0.2 mg/kg
[4] = system: Ovis aries; test: Antiparasitic activity against Cooperia […] at dose of 0.20 mg/kg in sheep anthelmintic test; conditions: dose 0.2 mg/kg
[5] = system: Ovis aries; test: Antiparasitic activity against Cooperia oncophora at dose of 0.20 mg/kg in sheep anthelmintic test; conditions: dose 0.2 mg/kg
[6] = system: Ovis aries; test: Antiparasitic activity against Trichostrongylus colubriformis at dose of 0.20 mg/kg in sheep anthelmintic test; conditions: dose 0.2 mg/kg
[7] = system: Artemia; test: In vitro antiparasitic activity in brine shrimp assay
[8] = system: Ovis aries; test: Antiparasitic activity against Ostertagia circumcincta at dose of 0.20 mg/kg in sheep anthelmintic test; conditions: dose 0.2 mg/kg
[9] = system: Cooperia oncophora; test: Antiparasitic activity against Cooperia oncophora at dose of 0.10 mg/kg in sheep anthelmintic test; conditions: dose 0.1 mg/kg
[10] = system: Haemonchus contortus; test: Antiparasitic activity against Haemonchus contortus at dose of 0.10 mg/kg in sheep anthelmintic test; conditions: dose 0.1 mg/kg
[11] = system: Trichostrongylus axei; test: Antiparasitic activity against Trichostrongylus axei at dose of 0.10 mg/kg in sheep anthelmintic test; conditions: dose 0.1 mg/kg
[12] = system: Oesophagostomum columbianum; test: Antiparasitic activity against Oesophagostomum columbianum at dose of 0.10 mg/kg in sheep anthelmintic test; conditions: dose 0.1 mg/kg
[13] = system: Teladorsagia circumcincta; test: Antiparasitic activity against Ostertagia circumcincta at dose of 0.10 mg/kg in sheep anthelmintic test; conditions: dose 0.1 mg/kg
[14] = system: Trichostrongylus colubriformis; test: Antiparasitic activity against Trichostrongylus colubriformis at dose of 0.10 mg/kg in sheep anthelmintic test; conditions: dose 0.1 mg/kg
[15] = system: Cooperia; test: Antiparasitic activity against Cooperia […] at dose of 0.10 mg/kg in sheep anthelmintic test; conditions: dose 0.1 mg/kg
[16] = system: Cooperia oncophora; test: Antiparasitic activity against Cooperia oncophora at dose of 0.05 mg/kg in sheep anthelmintic test
[17] = system: Cooperia; test: Antiparasitic activity against Cooperia […] at dose of 0.05 mg/kg in sheep anthelmintic test
[18] = system: Trichostrongylus colubriformis; test: Antiparasitic activity against Trichostrongylus colubriformis at dose of 0.05 mg/kg in sheep anthelmintic test
[19] = system: Oesophagostomum columbianum; test: Antiparasitic activity against Oesophagostomum columbianum at dose of 0.05 mg/kg in sheep anthelmintic test
[20] = system: Haemonchus contortus; test: Antiparasitic activity against Haemonchus contortus at dose of 0.05 mg/kg in sheep anthelmintic test
[21] = system: Teladorsagia circumcincta; test: Antiparasitic activity against Ostertagia circumcincta at dose of 0.05 mg/kg in sheep anthelmintic test
[22] = system: Trichostrongylus axei; test: Antiparasitic activity against Trichostrongylus axei at dose of 0.05 mg/kg in sheep anthelmintic test
[23] = system: Ovis aries; test: Antiparasitic activity against Trichostrongylus colubriformis at dose of 0.04 mg/kg in sheep anthelmintic test
[24] = system: Ovis aries; test: Antiparasitic activity against Trichostrongylus axei at dose of 0.04 mg/kg in sheep anthelmintic test
[25] = system: Ovis aries; test: Antiparasitic activity against Haemonchus contortus at dose of 0.04 mg/kg in sheep anthelmintic test
[26] = system: Ovis aries; test: Antiparasitic activity against Oesophagostomum columbianum at dose of 0.04 mg/kg in sheep anthelmintic test
[27] = system: Ovis aries; test: Antiparasitic activity against Ostertagia circumcincta at dose of 0.04 mg/kg in sheep anthelmintic test
[28] = system: Ovis aries; test: Antiparasitic activity against Cooperia […] at dose of 0.04 mg/kg in sheep anthelmintic test

Row | Structure (SMILES) | IC100 [7] | Reduction [9] | Reduction [10] | Reduction [11] | Reduction [12] | Reduction [13] | Reduction [14] | Reduction [15] | other results
1 | CCC(C)[C@H]1O[C@]2(C=C[C@@H]1C)C[C@@H]1C[C@@H](C/C=C(\C)[C@@H](O[C@H]3C[C@H](OC)[C@@H](O[C@H]4C[C@H](OC)[C@H](NCc5ccccc5)[C@H](C)O4)[C@H](C)O3)[C@@H](C)/C=C/C=C3\CO[C@@H]4[C@H](O)C(C)=C[C@@H](C(=O)O1)[C@]34O)O2 (stereo not given in full) | >55500 ng/mL |  |  |  |  |  |  |  | Reduction [1]: >95%; Reduction [2]: <50%; Reduction [3]: >95%; Reduction [4]: >95%; Reduction [5]: >95%; Reduction [6]: >95%; Reduction [8]: >95%
2 | CCC(C)[C@H]1O[C@]2(C=C[C@@H]1C)C[C@@H]1C[C@@H](C/C=C(\C)[C@@H](O[C@H]3C[C@H](OC)[C@@H](O[C@H]4C[C@H](OC)[C@H](NN(C)C)[C@H](C)O4)[C@H](C)O3)[C@@H](C)/C=C/C=C3\CO[C@@H]4[C@H](O)C(C)=C[C@@H](C(=O)O1)[C@]34O)O2 (stereo not given in full) | 430 ng/mL | >95% | >95% | >95% | >95% | >95% | >95% | >95% | 
3 | CCC(C)[C@H]1O[C@]2(CC(O)[C@@H]1C)C[C@@H]1C[C@@H](C/C=C(\C)[C@@H](O[C@H]3C[C@H](OC)[C@@H](O[C@H]4C[C@H](OC)[C@H](NC(C)=O)[C@H](C)O4)[C@H](C)O3)[C@@H](C)/C=C/C=C3\CO[C@@H]4[C@H](O)C(C)=C[C@@H](C(=O)O1)[C@]34O)O2 (stereo not given in full) | 870 ng/mL | >95% | <50% | >95% | >95% | >95% | >95% | 76% | 
4 | CCC(C)[C@H]1O[C@]2(C=C[C@@H]1C)C[C@@H]1C[C@@H](C/C=C(\C)[C@@H](O[C@H]3C[C@H](OC)[C@@H](O[C@H]4C[C@H](OC)[C@H](NC(=O)OC)[C@H](C)O4)[C@H](C)O3)[C@@H](C)/C=C/C=C3\CO[C@@H]4[C@H](O)C(C)=C[C@@H](C(=O)O1)[C@]34O)O2 (stereo not given in full) | 430 ng/mL | >95% | >95% | >95% | >95% | >95% | >95% | >95% | 
5 | CCC(C)[C@H]1O[C@]2(C=C[C@@H]1C)C[C@@H]1C[C@@H](C/C=C(\C)[C@@H](O[C@H]3C[C@H](OC)[C@@H](O[C@H]4C[C@H](OC)[C@H](N(C)C(C)=O)[C@H](C)O4)[C@H](C)O3)[C@@H](C)/C=C/C=C3\CO[C@@H]4[C@H](O)C(C)=C[C@@H](C(=O)O1)[C@]34O)O2 (stereo not given in full) | 650 ng/mL |  |  |  |  |  |  |  | Reduction [16]: >95%; Reduction [17]: >95%; Reduction [18]: >95%; Reduction [19]: >95%; Reduction [20]: >95%; Reduction [21]: >95%; Reduction [22]: >95%
6 | CCC(C)[C@H]1O[C@]2(C=C[C@@H]1C)C[C@@H]1C[C@@H](C/C=C(\C)[C@@H](O[C@H]3C[C@H](OC)[C@@H](O[C@H]4C[C@H](OC)[C@H](/N=C/N(C)C)[C@H](C)O4)[C@H](C)O3)[C@@H](C)/C=C/C=C3\CO[C@@H]4[C@H](O)C(C)=C[C@@H](C(=O)O1)[C@]34O)O2 (stereo not given in full) | 870 ng/mL | <50% | >95% | 51% | >95% | >95% | <50% | 76% | 
7 | CCC(C)[C@H]1O[C@]2(C=C[C@@H]1C)C[C@@H]1C[C@@H](C/C=C(\C)[C@@H](O[C@H]3C[C@H](OC)[C@@H](O[C@H]4C[C@H](OC)[C@H](N(C)C)[C@H](C)O4)[C@H](C)O3)[C@@H](C)/C=C/C=C3\CO[C@@H]4[C@H](O)C(C)=C[C@@H](C(=O)O1)[C@]34O)O2 (stereo not given in full) | 1300 ng/mL |  |  |  |  |  |  |  | Reduction [23]: 51%; Reduction [24]: <50%; Reduction [25]: >95%; Reduction [26]: >95%; Reduction [27]: >95%; Reduction [28]: 51%
